In series [1] the test system is patients with GI or urinary side effects of an acetylcholinesterase inhibitor. Description: Treatment of side effects of acetylcholinesterase inhibitors (case histories). The class given is in vivo. The following applies: for relief of urinary side effects (polyuria, frequency): Detrol / Detrol LA 2-4 mg daily with donepizil; for relief of GI side effects (nausea, diarrhea, frequent bowel movements, cramps): metoclopramide (Reglan) 5 mg before meals and at bedtime, with an acetylcholinesterase inhibitor. From the text:
Metoclopramide (Reglan®) is an […].
The most extreme example of neuropathic pain arises following amputation where there is complete transection of the nerve. Pain complaints are difficult to manage with the usual combinations of anti-seizure drugs, tricyclic anti-depressants and narcotics.

Series [2] has as its system patients with urinary retention. The series can be described thus: Patient case histories: urinary retention (voiding trials, post void residuals). The following applies: for post void residuals (PVR's): before 150-200 cc.
Another series relates to cutaneous blood flow. The following applies: animal models; cited from earlier work.
Series [3] has as its system patients with peripheral vascular disease and diabetes mellitus. The series can be described thus: Patient case histories: microvascular disease / vascular insufficiency. The class given is in vivo, human. To be noted: galantamine 4-8 mg two to four times daily. The source says: In summary, vascular insufficiency from diabetes is associated with compromise of the microvascular circulation. Treatment with an effective dose of an acetylcholinesterase inhibitor raises the relative concentration of acetylcholine promoting vasodilitation of the microcirculation (end arterioles) through stimulation of neuronal and non-neuronal acetylcholine receptors in the intima of the blood vessels. The beneficial effects of promoting vasodilitation and enhanced tissue perfusion correcting the dystrophic changes and alleviating ischemic pain and ulcers is readily apparent in this series of patients.
The present invention provides a method for the medical management of peripheral vascular disease. The management of peripheral vascular disease with acetylcholinesterase inhibitor addresses the central dilemma in vascular perfusion of the lower extremities. By increasing the relative concentration of acetylcholine, the parasympthetic nervous system is enhanced, improving blood flow at the tissue level by relaxation of the small end arterioles and improving perfusion therefore decreasing vascular edema, enhancing resolution of trohpic ulcers and alleviating rest pain and claudication complaints. The parasympathetic nervous system controls vascular beds in the small arterioles and by increasing the available acetylcholine, dilatation occurs and blood flow improves. By treatment with acetylcholinesterase inhibitors the end results in improved vascular blood supply, decreased congestion at the small arterioles level and improved blood supply. This is particularly necessary in diabetic patients. The presence of non-neuronal acetylcholine receptors with the intima of blood vessels at the microvascular level represents a second physiologic mechanism whereby dilatation of small blood vessels is facilitated by the use of an acetylcholinesterase inhibitor. This latter mechanism owing to the sensitive nature of the cholinesterases associated with the non neuronal acetylcholine system provides sustained cholinergic activity impacting the microvascular circulation and improving perfusion at the critical end arteriole-capillary-venule level.

In series [4] the test system is patients with chronic renal insufficiency. Description: Patient case histories: chronic renal insufficiency (serum creatinine, BUN). Format: in vivo, human. The following applies: galantamine 4 mg orally three times daily. The source says:
To postpone or avoid the sequelae of chronic renal insufficiency, treatment with acetylcholinesterase inhibitors increase the concentration of acetycholine available to promote blood flow to the renal cortex preventing loss of nephrons and allowing existing renal parenchyma to provide the vital function of the kidney. Just as parasympathetic outflow provide homeostatic neural input to the elimination of function of the intestine, the same parasympathetic innervation provides vasodilatation of the small arterioles supplying the cortex of the kidneys allowing for optimal functioning.

Series [5] deals with patients with diabetic polyneuropathy. Format: in vivo, human. The source says:
The symptoms of motor and sensory loss of diabetic polyneuropathy are ameliorated by acetylcholinesterase inhibitions by increasing concentration of acetylcholine, the principle neurotransmitter of the parasympathetic nervous system. By augmenting the trophic input of nerves of parasympathic nervous system; pain and dyserethesia are diminished and weakness/atrophy of muscles are diminished. The clinical observation in non-Alzheimer's patients is an improvement in motor and sensory function following treatment with effective doses of an acetylcholinesterase inhibitor. Improved blood flow within the microvascular circulation supplying the vasovasorum of the nerves produces the beneficial effect. By restoring blood flow to the vasovasorum of the nerves ischemic pain is relieved and normal function of the nerve is allowed to occur. The process of vasodilatation of the microvascular circulation is mediated through both neuronal and non-neuronal acetylcholine receptors stimulation by acetylcholine. Enhancement in acetylcholine levels is effected through treatment with acetylcholinesterase inhibitors.
The physiologic shift favoring vasoconstriction that is associated with diabetes is reversed following administration of an acetylcholinesterase inhibitor allowing perfusion of the microvasculature, restoring blood flow to ischemic motor and sensory nerves damaged by the effects of diabetes.

The next series has as its system patients with lymphedema. Format: in vivo, human. The source says: The improvement in perfusion within the small arterioles decreases the hydrostatic pressure at the end arterioles and therefore reduces interstitial fluid accumulation that impedes the return of lymph fluid within the lymphatic vessels. The physics model for this phenomenon makes use of Bernouli's equation and its relationship to a Venturi tube. Hydrostatic pressure proximal to a relative stricture creates a pressure gradient that leads to increased transudation that overwhelms the capacity of the lymphatic system to manage. The vasodilatory effects of the parasympathetic nervous system upon small arterioles produces improved perfusion and lessens the accumulation of lymphedema. A common example of lymphedema occurs following joint replacement surgery with swelling that persists for three to six months and sometimes permanently. Lymphedema following joint replacement surgery slows recovery and creates pain while predisposing to deep vein thrombosis and infection.

For series [6], the system named is patients with Multiple Sclerosis. The class given is in vivo, human. The following applies: galantamine 4 mg orally three times daily, foley catheter removed 48 hours later. From the text:
The present invention provides an acetylcholinesterase inhibitor to increase the relative concentration of […] within the central nervous system to improve parasympathetic neural transmission and combat the features of M. S. that often present in a craniosacral distribution. Cranial symptoms include mental status changes, emotional lability as well as optic dysfunction and nystgmus. Cranial nerves that control extracular muscles are also affected. Cranial involvement can also manifest as swallowing problems with frank dysphagia. The sacral manifestations of parasympathic dysfunction relate to bowel and bladder control. The symptoms of spastic bladder, urinary retention and constipation are relieved by treatment with an Acetylcholinesterase inhibitor raising the concentrations of acetylcholine to enhance the neural transmission of the parasympathetic nervous system to facilitate normal bowel and bladder function. The craniosacral manifestations of M.S. are reflected in dysfunctional neural transmission associated with the parasympathetic nervous system and can be ameliorated or corrected by treatment with an acetylcholinesterase inhibitor. Improved blood flow within the vasovasorum of the myelin sheath/nerve is also considered useful in amelioration of MS symptoms. […]

The subject of series [7] is patients with phantom pain. Description: Patient case histories: phantom pain following amputation. Format: in vivo, human. From the text: The present invention further provides a method of treating phantom pain following amputation in both upper and lower extremities. “Phantom pain” is a phenomenon described following amputation of either an upper or lower extremity. The sensation is common following amputation and present with varying degrees of discomfort and debility. A patient with phantom pain is typically treated with antidepressants, Neurontin® (gabapeninand) narcotics to a varying degree. The use of acetylcholinesterase inhibitors decreases the need for narcotics and generally eliminates the need for poly pharmacy improving pain, enhancing wound healing and improved sleep pattern in amputee patients. The dose of acetylcholinesterase inhibitor is titrated to GI (gastrointestinal) tolerance with bowel movement consistency and frequency the determining factors. Treatment with acetylcholinesterase inhibitor increases the available acetylcholine which is the neurotransmitter responsible for activation of the parasysmpathic nervous system appear responsible for Noxious symptoms of phantom pain for discomfort. The present invention provides a method of treating phantom pain associated with amputation of either upper or lower extremity.

The test system of series [8] is patients with rheumatologic conditions (RA, SLE, PMR, polymyositis). Description: Patient case histories: rheumatological conditions. Format: in vivo, human. From the text: The use of an acetylcholinesterase inhibitor raises level of acetylcholine by inhibition of cholinesterase. The Increased levels of acetylcholine stimulate neuronal receptors of the parasympathetic nervous system and non-neuronal receptors associated with the intima of blood vessels and leukocytes. This dual effect of improving flow within the microvascular circulation and stabilization of leukocytes and their adhesion to the wall of blood vessel produces the anti-inflammatory effect that is observed with the use of an acetylcholinesterase inhibitor for treatment of rheumatologic diseases.

The subject of series [9] is patients with myofascial pain / fibromyalgia. The series can be described thus: Patient case histories: fibromyalgia / myofascial pain syndrome. Format: in vivo, human. From the text: The present invention provides a method for treating fibromyalgia and myofascial pain syndrome by increasing tissue levels of acetylcholine. Acetylcholine is the neurotransmitter of the parasympathic nervous system. The inventive method increases the relative amount of parasympathetic transmission and thereby facilitates resolution of the pain areas and diminishes the need for narcotics and polypharmacy. The reduction in the use of narcotics, NSAIDs, and tricyclic antidepressants and other medications used for pain having their deleterious side effects is a major benefit. By administration of acetyl cholinesterase inhibitor, the relative concentrations of acetylcholine are increased and available to propagate the impulses of the parasympathic nervous systems and within the non-neuronal acetylcholine receptors diminishing pain and spasms. […] The influence of non-neuronal acetylcholine receptors affected by enhanced levels of acetylcholine produces a reduction in pro-inflammatory mediators and increased blood flow to the nerve fibers involved in pain transmission. The net effect is a reduction in inflammation and improved blood flow to the vasovasorum of the affected nerves reducing the painful sensations.

The subject of series [10] is patients with neuropathic pain. The following applies: rivastigmine test dose.
For series [11], the system named is patients with Parkinson's disease. The following applies: rivastigmine 1.5-3 mg twice daily.
The test system of series [12] is regional blood flow in the brain. To be noted: PET scanning; Alzheimer's patients and normal subjects; cited from earlier work.
The mark [13] stands for this setting: rivastigmine 1.5 mg twice daily.

SMILES strings stand for the structures. “Also recorded” adds a separate entry of the source. Where two headings read alike, the source gives them in different places.

As for `Cc1ccc(O)c([C@H](CCN(C(C)C)C(C)C)c2ccccc2)c1` [Detrol LA, tolterodine], the “relief of urinary side effects (polyuria, frequency)” value is “prompt reduction in their urinary frequency; also recorded: able to tolerate this regimen” in [1] and “treated successfully” in series [1] (listed as Detrol).
With `CCOc1ccccc1OCCN[C@H](C)Cc1ccc(OC)c(S(N)(=O)=O)c1` [Flomax], in [2] (Flomax 0.4 mg, then 0.8 mg, residuals in excess of 300 cc's before), the voiding trial result is reported as “first voiding trial was unsuccessful; also recorded: second voiding trial was also unsuccessful”.
`CC(=O)OC(C)C[N+](C)(C)C` (stereo not shown) [Methacholine]: the “cutaneous blood flow and skin temperature” value in the series on cutaneous blood flow is “increases cutaneous blood flow and skin temperature”.
In the case of `CCN(CC)CCNC(=O)c1cc(Cl)c(N)cc1OC` [Reglan, metoclopramide], the “relief of GI side effects (nausea, diarrhea, frequent bowel movements, cramps)” value in series [1] was “able to continue treatment with donepizil; also recorded: prompt resolution of their GI complaints; also recorded: prompt relief of their GI complaints; also recorded: treated successfully”; in series [1] (listed as metoclopramide), “easily managed; also recorded: ameliorated or eliminated”.
`COc1ccc2c3c1O[C@H]1C[C@@H](O)C=C[C@@]31CCN(C)C2` [galantamine]: the side effects entry in [3] was “No symptoms of diarrhea or gastroesophageal reflux disease (GERD) were reported; also recorded: no untoward side effects”; in the series with patients with lymphedema (galantamine 4 mg orally three times daily, asthma patient), “without compromise of their pulmonary condition”; in [7] (galantamine 4 mg BID titrated to four times a day), “without nausea/vomiting or GI upset”; in series [8] (galantamine 4-8 mg three times daily) it was “no adverse side effects of diarrhea or nausea”; in series [2] (galantamine 4 mg three times daily to 8 mg two or three times daily), “no untoward side effects; also recorded: mild nausea (without emesis)”. In series [4] (before treatment 1.8), the serum creatinine is on record as 1.4. Moreover, in [4] (before treatment 32), the “BUN (blood urea nitrogen)” value was 21. The “improvement in Left foot drop” value in series [5] (galantamine titrated to 8 mg TID (a person)) was 80-85%. In [6], this molecule had a post void residuals of less than 100 cc. Besides, in series [7] (galantamine 8 mg BID over two weeks, before: 5 tablets per day), the “use of Oxycodone/APAP” value was 2-3 tablets per week. For the same molecule, the “post void residuals (PVR's)” value in [2] (galantamine 4 mg orally three times daily) is reported as “under 100 cc”; in [2] (galantamine 8 mg orally twice daily) it was roughly 50 cc.
`CCN(C)C(=O)Oc1cccc([C@H](C)N(C)C)c1` [rivastigmine]: the “course after the drug was withdrawn or lapsed” value in [5] (drug stopped after initial improvement) was “complaints of weakness and loss of ambulatory ability”. Also, the side effects entry in series [9] (rivastigmine) is given as “no ill effects; also recorded: no adverse side effects”; with patients with lymphedema (setting [13]), “no ill side effects”; in [8] (rivastigmine 1.5-3 mg twice daily), “no adverse side effects such as dyspepsia, diarrhea or polyuria”; in series [11], “no negative side effects”. Moreover, the “clinical outcome (pain)” value in series [9] (setting [13]) is reported as “significant improvement; also recorded: greater control of their pain”; in [9] (rivastigmine 3 mg twice daily), “near complete alleviation in their pain; also recorded: pain symptoms became less frequent”. Moreover, the “clinical outcome (narcotic use)” value in [9] (rivastigmine 4 mg orally twice daily titrated upward to 8 mg three times daily) is “use of narcotics was completely eliminated”. The “clinical outcome (swelling, warmth, pain)” value in series [8] (rivastigmine 1.5 mg orally twice daily, Rheumatoid Arthritis flair-up) is “signs of swelling and warmth improved but the patient still had complaints of pain”. Moreover, the “clinical outcome (pain, swelling)” value in [8] (rivastigmine 3 mg orally twice daily, Rheumatoid Arthritis flair-up) is reported as “pain symptoms resolved within a day; also recorded: concomitant improvement in their lower extremity swelling”. The recurrence under prophylaxis entry in series [8] (rivastigmine lower dose for prophylaxis, three month) was “no recurrence of pain or swelling”. Further, in series [10], the “clinical outcome (phantom pain)” value is recorded as “notable improvement in their phantom pain within one hour”. Also, the “regional blood flow in the brain / CNS structures” value in series [12] is reported as “Regional blood flow is increased; also recorded: improve blood flow to CNS structures; also recorded: improve regional blood flow in the brain”.

These data come from patent US20060183733A1, “Treating microvasculature diseases with acetyl cholinesterase inhibitors” (priority 2005, published 2006).
